In US20160184338A1, “Bioactive Alkaloid Compositions and Their Medical Uses” (Asiros A/S, priority 2013, published 2016):
“Also recorded” adds a separate entry of the source.

Experiments:
IkappaB kinase β (IKK-β) = molecular target: T1, IkappaB kinase β (IKK-β) (Homo sapiens, UniProt O14920); assay: IKK-β inhibition, Z'-LYTE Kinase Assay Kit-Ser/Thr 5 Peptide (FRET); format: biochemical
T1 construct: purchased Invitrogen
T1 sequence (O14920 1-756): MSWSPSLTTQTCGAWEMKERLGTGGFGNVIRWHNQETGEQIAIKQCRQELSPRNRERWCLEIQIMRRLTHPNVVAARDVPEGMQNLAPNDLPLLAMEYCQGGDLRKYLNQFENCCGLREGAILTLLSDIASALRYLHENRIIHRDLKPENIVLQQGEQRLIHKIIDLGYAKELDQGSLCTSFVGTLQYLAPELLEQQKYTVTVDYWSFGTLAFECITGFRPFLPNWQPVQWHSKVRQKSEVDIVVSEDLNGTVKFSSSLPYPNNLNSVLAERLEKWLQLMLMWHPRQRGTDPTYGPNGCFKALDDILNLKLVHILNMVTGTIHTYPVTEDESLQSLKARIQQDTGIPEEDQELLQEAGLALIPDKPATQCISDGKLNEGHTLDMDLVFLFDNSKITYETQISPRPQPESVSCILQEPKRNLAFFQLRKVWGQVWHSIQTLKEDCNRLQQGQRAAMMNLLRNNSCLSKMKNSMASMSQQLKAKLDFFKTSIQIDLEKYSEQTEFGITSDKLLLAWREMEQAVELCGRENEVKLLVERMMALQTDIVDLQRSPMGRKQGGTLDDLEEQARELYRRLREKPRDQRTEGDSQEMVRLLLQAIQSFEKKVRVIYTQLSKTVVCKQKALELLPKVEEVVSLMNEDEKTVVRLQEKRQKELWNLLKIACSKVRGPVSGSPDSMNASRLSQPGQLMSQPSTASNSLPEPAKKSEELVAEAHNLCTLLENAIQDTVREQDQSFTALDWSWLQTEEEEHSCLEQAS
Method: IKK-β phosphorylates the inhibitory IκB protein associated with NE-κB. Phosphorylation results in the dissociation of IκB from NE-κB, allowing NE-κB to migrate into the cell nucleus where it can activate the transcription of at least 150 genes. The Z9-LYTE™ Kinase Assay Kit-Ser/Thr 5 Peptide is designed to screen for potential IKK-β inhibitory effect using fluorescence resonance energy transfer (FRET) between coumarin and fluorescein for detection by a fluorometer.
The assay was performed according to Z9-LYTE™ KINASE ASSAY KIT-SER/THR 5 PEPTIDE protocol provided by Invitrogen [Invitrogen, Z′-LYTE™ Kinase Assay Kit-Ser/Thr 5 Peptide Protocol, O-062187-r1 US 0405]. Based on the IKK-β certificate of the kit, a kinase concentration of 500 ng/ml was chosen. Km for ATP 9.4 μM was chosen according to an optimization for the LanthaScreen™ kinase assay [http://tools.invitrogen.com/content/sfs/manuals/IKBKB_%28IKK_beta%29_LanthaScreen_Activity.pdf].
(§1) A fluorescence plate reader (Appliskan, Thermo Scientific) was used to detect fluorescence emission signals according to the following parameters:
(§2) Selected alkaloids of the invention prepared in example 1 were tested in 5 times dilutions to establish the 50% inhibitory concentration (IC-50).

PDE4A1A = molecular target: T2, PDE4A1A (Homo sapiens, UniProt P27815); assay: PDE4A1A Assay Kit, fluorescence polarization; format: biochemical; conditions: PDE4
T2 construct: purchased BSP Bioscience 60340
T2 sequence (P27815 1-647 isoform P27815-4): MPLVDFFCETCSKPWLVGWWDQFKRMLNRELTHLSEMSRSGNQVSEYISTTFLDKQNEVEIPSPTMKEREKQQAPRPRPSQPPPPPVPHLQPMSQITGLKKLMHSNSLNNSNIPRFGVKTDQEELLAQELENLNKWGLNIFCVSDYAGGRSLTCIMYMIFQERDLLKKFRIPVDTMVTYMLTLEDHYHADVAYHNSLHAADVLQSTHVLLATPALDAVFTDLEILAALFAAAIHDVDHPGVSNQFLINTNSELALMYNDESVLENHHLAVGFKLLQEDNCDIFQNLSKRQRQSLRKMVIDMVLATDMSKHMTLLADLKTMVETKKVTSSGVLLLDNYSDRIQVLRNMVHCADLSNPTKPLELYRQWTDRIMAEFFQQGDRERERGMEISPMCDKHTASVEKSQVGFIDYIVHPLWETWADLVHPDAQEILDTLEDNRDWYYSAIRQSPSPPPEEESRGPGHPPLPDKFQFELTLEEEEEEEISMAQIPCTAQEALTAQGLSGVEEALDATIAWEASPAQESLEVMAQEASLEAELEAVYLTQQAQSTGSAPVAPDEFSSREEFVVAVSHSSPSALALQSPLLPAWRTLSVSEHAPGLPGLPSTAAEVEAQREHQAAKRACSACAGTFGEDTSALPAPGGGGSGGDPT
Method: Inhibition of PDE4 blocks hydrolysis of cAMP, thereby increasing levels of cAMP. The PDE4A1A Assay Kit is designed for identification of PDE4A1A inhibitors using fluorescence polarization. The assay is based on the binding of fluorescent AMP generated by PDE4A1A to the binding agent.
The assay was performed according to the protocol of the PDE4A1A assay provided by BSP Bioscience [BSP Bioscience, Data sheet PDE4A1A Assay Kit, Catalog #60340].
as §1, §2

PDE5A = molecular target: T3, PDE5A (Homo sapiens, UniProt O76074); assay: PDE5A Assay Kit, fluorescence polarization; format: biochemical; conditions: PDE5
T3 construct: purchased BSP Bioscience 60350
Method: Inhibition of PDE5 blocks hydrolysis of cGMP, thereby increasing levels of cGMP. The PDE5A Assay Kit is designed for identification of PDE5A inhibitors using fluorescence polarization. The assay is based on the binding of a fluorescent nucleotide monophosphate generated by PDE5A to the binding agent.
The assay was performed according to the protocol of the PDE5A assay provided by BSP Bioscience [BSP Bioscience, Data sheet PDE5A Assay Kit, Catalog #60350].
as §1
Test Compounds • Selected alkaloids of the invention prepared in example 1 were tested in 5 times dilutions to establish the 50% inhibitory concentration (IC-50).

[1] = tested on: hyperlipidemic guinea pigs; assay: Hypocholesterolemic effect in guinea pigs on high fat diet; format: in vivo, guinea pig; conditions: 10 mg/kg oral daily, 28 days
Method: Male Dunkin-Hartley guinea pigs weighing 300+/−30 g were acclimated one week before the in-life phase of the experiment. The study diet (Research Diets Inc, New Brunswick, N.J., USA) contained 15% corn oil and 0.25% cholesterol. A daily oral dose of 2000 mg/kg of RAP2 corresponding 9 μg/kg of Ribetril A and 82 μg/kg total Ribetrils as well as 632 μg/kg total Glucoindols was administered orally at a dosing volume of 10 mL/kg. A daily oral dose of 2000 mg/kg of RAP4 corresponding to 112 μg/kg of Ribetril A and 492 μg/kg total Ribetrils as well as 240 μg/kg total Glucoindols was administered orally at a dosing volume of 10 mL/kg. The positive control atorvastatin (10 mg/kg) and vehicle (0.5% methylcellulose) were each administered orally at a dosing volume of 10 mL/kg. […]
After fasting overnight, blood samples were obtained from the retro-orbital sinus of each animal 5 min before initial test substance and/or vehicle administration (pre-treatment) and 24 hours after dosing on days 14 and 28 (post-treatment). The serum total cholesterol (TC), low density lipoprotein cholesterol (LDL-C), high density lipoprotein cholesterol (HDL-C) and triglycerides (TG) were determined by an enzymatic method (Wako total cholesterol, LDL-C, HDL-C & TG diagnostic kit and Toshiba Automatic Analyzer Model TAB-120FR).

[2] = tested on: BKS Cg-Lepr db/Lepr db mice; assay: Hypoglycemic effect in NIDDM mice; format: in vivo, mouse; conditions: oral daily 14 days (RAP4 2000 mg/kg, metformin 300 mg/kg), day 14 post dosing
Method: Male non-insulin dependent diabetic mellitus (NIDDM) mice (BKS Cg-Lepr db/Lepr db) weighing 50+/−5 g were used at age of 12-13 weeks. A daily oral dose of 2000 mg/kg of RAP4 corresponding to corresponding to 112 μg/kg of Ribetril A and 492 μg/kg total Ribetrils as well as 240 μg/kg total Glucoindols was administered orally at a dosing volume of 10 mL/kg to 12 animals for a total of 14 consecutive days. The positive control of metformin (300 mg/kg) and vehicle (2% Tween 80) were each administered orally at a dosing volume of 10 mL/kg to groups of 6 animals once daily for a total of 14 consecutive days. Serum glucose levels were measured by means of an automated analyzer (TBA-120FR, Toshiba) and serum insulin by ELISA at zero min (pre-treatment) on Day 1, and at 90 min after the daily dosing (post-treatment) on Day 7 and Day 14.

N#C/C(=C\CO[C@@H]1O[C@H](CO)[C@@H](O)[C@H](O)[C@H]1O)COC(=O)/C=C/c1ccc(O)c(O)c1 [Ribetril A, (E)-(E)-2-cyano-4-(((2R,3R,4S,5S,6R)-3,4,5-trihydroxy-6-(hydroxymethyl)tetrahydro-2H-pyran-2-yl)oxy)but-2-en-1-yl 3-(3,4-dihydroxyphenyl)acrylate]
times lower IC-50 as compared to Ribetril B (IkappaB kinase β (IKK-β)): 48 times
times lower IC-50 as compared to Ribetril C (IkappaB kinase β (IKK-β)): 118 times
times lower IC-50 as compared to Ribetril B (PDE4A1A): 5 times
times lower IC-50 as compared to Ribetril C (PDE4A1A): 20 times
times lower IC-50 as compared to Ribetril B (PDE5A): 3 times
times lower IC-50 as compared to Ribetril C (PDE5A): 8 times

CC(C)c1c(C(=O)Nc2ccccc2)c(-c2ccccc2)c(-c2ccc(F)cc2)n1CC[C@@H](O)C[C@@H](O)CC(=O)O [atorvastatin]
effect on triglycerides [1]: did not significantly reduce triglycerides; also recorded: did not display a significant decreasing effect on triglyceride levels

CN(C)C(=N)N=C(N)N [metformin]
serum glucose levels relative to vehicle control [2]: significant decrease
